Laboratory results as given in patent US20110097338A1, “Use of Substances for Sensitization of Tumor Cells to Radiation and/or Chemotherapy” (TECHNISCHE UNIVERSITAET DRESDEN, priority 2008, published 2011).
d = 2'-deoxy (DNA); r = 2'-OH (RNA)

What was measured:
Type in all cases: cell-based, human
PINCH-1 protein = experiment: Western Blot of PINCH-1 knock-down after siRNA transfection; conditions: HCT-116 and DLD-1 cells; 20 nmol/l siRNA with oligo fectamine; lysates 48 h after transfection
Experimental: (§1) Human colorectal tumor cell lines of the type HCT-116 (ATCC No. CCL-247) and of the type DLD-1 (ATCC No. CCL-221) were transfected with PINCH-1-siRNA of the SEQ ID No. 5. For this purpose, 3×10^5 tumor cells on 6-well plates (BD, Heidelberg) in Dulbecco's Modified Eagle (DMEM; Gibco, Karlsruhe) with Glutamax-I (L-alanyl-L-glutamine), 10% serum (FCS; Biochrom, Berlin) and 1% of non-essential amino acids (Gibco, Karlsruhe) were seeded and cultured at 37° C. and 7% CO2. After 24 h the cells were washed once with Opti-MEM I (Invitrogen, Karlsruhe) and transfected with oligo fectamine (0.2%) and 20 nmol/l PINCH-1-siRNA for 8 h without serum in Opti-MEM I. Afterwards 10% serum was added and the cells incubated for another 16 h at 37° C. and 7% CO2. After a total of 24 h after transfection the cells were washed with phosphate-buffered saline solution (PBS; PAA, Cölbe) and removed with trypsin/EDTA solution. […] Of this portion, protein lysates were produced for examining knock-downs in the Western Blot, the proteins were separated by means of SDS PAGE, transferred onto a nitrocellulose membrane and detected with a mouse-anti-PINCH-1-antibody (clone 49; BD Heidelberg) as well as a peroxidase-coupled goat-anti-mouse-secondary antibody and the ECL system (GE Healthcare, Munich).

DLD-1 = experiment: Clonogenic survival after radiation (colony forming assay), siRNA transfection; conditions: siRNA 20 nmol/l, irradiated 48 h later with 0-6 Gy
Experimental: as §1

HCT-116 = experiment: as above; conditions: siRNA 20 nmol/l, irradiated 48 h later with 0-6 Gy
Experimental: as §1

In the case of “GCUAUAUCUCAAAGCAGUUtt (GCUAUAUCUCAAAGCAGUUTT; siRNA; sugars from the 5' end r19 d2, backbone not given here) [PINCH-1-siRNA of the SEQ ID No. 5]”, the “formation of PINCH-1 protein / PINCH-1 expression (Western Blot, FIG. 3)” value (PINCH-1 protein) was “prevented”, the “survival rate after radiation vs. control-siRNA (FIG. 4)” value (DLD-1) was “lowered significantly” and the “survival rate after radiation vs. control-siRNA (FIG. 4)” value (HCT-116) was “lowered significantly”.
